Test results reported in PMC9525708, “Mechanistic insight into the role of mevalonate kinase by a natural fatty acid-mediated killing of Leishmania donovani” (Scientific Reports, 2022).

Key:
[1] = target: T1, mevalonate kinase (MevK, LD-MevK) (Leishmania donovani, UniProt A0A3S7X459); assay: pyruvate kinase-lactate dehydrogenase coupled assay, purified enzyme, […] compound; type: biochemical
T1 construct: gene LdCL_310011300; recombinant LD-MevK (pET28a, Ni-NTA purified, ~37 kDa)
T1 sequence (A0A3S7X459 1-329): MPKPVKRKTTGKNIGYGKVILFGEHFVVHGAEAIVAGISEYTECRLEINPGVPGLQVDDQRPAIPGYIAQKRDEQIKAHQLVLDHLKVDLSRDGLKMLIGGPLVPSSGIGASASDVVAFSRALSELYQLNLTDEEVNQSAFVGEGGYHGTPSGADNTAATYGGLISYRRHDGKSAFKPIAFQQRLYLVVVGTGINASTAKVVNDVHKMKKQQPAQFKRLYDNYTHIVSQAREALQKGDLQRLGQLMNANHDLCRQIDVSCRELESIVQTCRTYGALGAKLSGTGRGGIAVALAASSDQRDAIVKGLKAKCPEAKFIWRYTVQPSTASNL

[2] = target: T1, mevalonate kinase (MevK, LD-MevK); assay: ITC (exothermic binding constant); also CD, and coupled PK-LDH assay with purified enzyme ([…] inhibition at […], competitive); conditions: read-out: ITC (exothermic binding constant); also CD, and coupled PK-LDH assay with purifi
[3] = target: T1, mevalonate kinase (MevK, LD-MevK); assay: ITC (endothermic binding constant); also CD and enzyme kinetics (Km […])

inhibition at 100 µM [1] [%] | Structure (SMILES) | other results
~65 | CCCCCCCC(=O)OC [1m-CAE, methyl octanoate] | –
~65 | CCCCC(C)CCC(=O)O (stereo not shown) [4m-CA, 4-methyl octanoic acid] | –
– | CCCCCCCC(=O)O [CA, Caprylic acid] | Kd [2]: 101 µM
– | C[C@@](O)(CCO)CC(=O)O [MEV, 3,5-Dihydroxy-3-methylpentanoic acid] | Kd [3]: 62.9 µM
